The CheMixHub viscosity set
± gives the uncertainty stated by the source.

Test: xn = mol fraction of the nth substance listed

CCCC(C)=O + C1CCCC1
viscosity [mPa·s], 101.33 kPa
Conditions	293.15 K	298.15 K	303.15 K
x2 = 0.0411	0.49 ± 0.009	0.463 ± 0.009	0.44 ± 0.008
x2 = 0.0966	0.481 ± 0.009	0.455 ± 0.008	0.431 ± 0.008
x2 = 0.1985	0.471 ± 0.009	0.445 ± 0.008	0.422 ± 0.008
x2 = 0.3214	0.458 ± 0.009	0.433 ± 0.008	0.41 ± 0.008
x2 = 0.3876	0.452 ± 0.008	0.428 ± 0.008	0.406 ± 0.008
x2 = 0.5026	0.443 ± 0.008	0.419 ± 0.008	0.398 ± 0.008
x2 = 0.6097	0.436 ± 0.008	0.414 ± 0.008	0.392 ± 0.008
x2 = 0.6934	0.433 ± 0.008	0.41 ± 0.008	0.39 ± 0.008
x2 = 0.7996	0.429 ± 0.008	0.407 ± 0.008	0.387 ± 0.008
x2 = 0.9054	0.429 ± 0.008	0.406 ± 0.008	0.386 ± 0.008
x2 = 0.9515	0.433 ± 0.008	0.41 ± 0.008	0.389 ± 0.008

CCCC(C)=O + C1CCCCC1
viscosity [mPa·s]
Conditions	293.15 K	298.15 K	303.15 K
101.32 kPa, x2 = 0.1524	–	–	0.474 ± 0.004
101.32 kPa, x2 = 0.2942	–	–	0.496 ± 0.004
101.32 kPa, x2 = 0.3752	–	–	0.507 ± 0.004
101.32 kPa, x2 = 0.4326	–	–	0.517 ± 0.004
101.32 kPa, x2 = 0.5075	–	–	0.532 ± 0.004
101.32 kPa, x2 = 0.5951	–	–	0.555 ± 0.004
101.32 kPa, x2 = 0.7377	–	–	0.607 ± 0.004
101.32 kPa, x2 = 0.8891	–	–	0.695 ± 0.004
101.33 kPa, x2 = 0.0483	0.5 ± 0.009	0.473 ± 0.009	0.447 ± 0.008
101.33 kPa, x2 = 0.0981	0.506 ± 0.009	0.477 ± 0.009	0.452 ± 0.008
101.33 kPa, x2 = 0.1932	0.516 ± 0.009	0.486 ± 0.009	0.458 ± 0.008
101.33 kPa, x2 = 0.296	0.537 ± 0.01	0.504 ± 0.009	0.476 ± 0.009
101.33 kPa, x2 = 0.3957	0.562 ± 0.01	0.528 ± 0.009	0.498 ± 0.009
101.33 kPa, x2 = 0.4987	0.594 ± 0.01	0.554 ± 0.01	0.52 ± 0.009
101.33 kPa, x2 = 0.5982	0.625 ± 0.011	0.591 ± 0.01	0.548 ± 0.01
101.33 kPa, x2 = 0.7002	0.68 ± 0.012	0.632 ± 0.011	0.594 ± 0.01
101.33 kPa, x2 = 0.8051	0.748 ± 0.012	0.694 ± 0.012	0.645 ± 0.011
101.33 kPa, x2 = 0.9024	0.847 ± 0.014	0.781 ± 0.013	0.724 ± 0.012
101.33 kPa, x2 = 0.9503	0.898 ± 0.015	0.826 ± 0.014	0.762 ± 0.013

CCN(CC)CC + C1CCCCC1
303.15 K, 101 kPa
Conditions	viscosity [mPa·s]
x1 = 0.01021	0.8057 ± 0.0088
x1 = 0.01915	0.7913 ± 0.0089
x1 = 0.0299	0.7725 ± 0.0083
x1 = 0.04221	0.7556 ± 0.0079
x1 = 0.04976	0.7402 ± 0.0078
x1 = 0.0618	0.7264 ± 0.0071
x1 = 0.07115	0.7134 ± 0.0074
x1 = 0.07987	0.7009 ± 0.0072
x1 = 0.08947	0.6879 ± 0.0067
x1 = 0.09947	0.6772 ± 0.0063
